Square brackets hold non-standard residues; d marks the D form. Ends that are not written are not given here. Peptide text beside a SMILES is read from it. pGlu = O=C1CC[C@@H](C(=O)O)N1
Key:
[1] = target: C-terminal catalytic site of the Angiotensin I converting enzyme (recombinant ACE) (Homo sapiens, UniProt P12821); test: Inhibition of the C-terminal catalytic site of recombinant ACE (fluorogenic substrate); format: biochemical
Description: (§1) The fractions from purification were submitted to mass spectrometry analysis to conforming the Evasins molar mass after purification. • The enzyme assays for the recombinant ACE inhibition were conducted using the substrate Mca-Ala-Ser-Asp-Lys-DpaOH, at 25° C., in a 50 mM Hepes buffer (pH 6.8), 200 mM NaCl and […] ZnCl2.

[2] = target: N-terminal catalytic site of the Angiotensin I converting enzyme (recombinant ACE) (Homo sapiens, UniProt P12821); test: Inhibition of the N-terminal catalytic site of recombinant ACE (fluorogenic substrate); format: biochemical
Description: as §1

[3] = target: neutral endopeptidase (recombinant NEP) (Homo sapiens, UniProt P08473); test: Fluorometric assay of recombinant NEP inhibition; format: biochemical
Description: The fluorometric assays for the recombinant NEP inhibition were conducted using the substrate Abz-RL-EDDnp in a 50 mM Tris-HCl buffer, pH 7.5, at 37° C. […] The Evasins were pre-incubated with the enzyme before the substrate addition.
The inhibition constants (Ki) values were determined by means of the ratio of the apparent inhibition constant (Ki(app)) and the substrate Km (Salvesen and Nagase, 1990). In: Proteolytic enzymes a practical aproach, Beynon and Bond Eds Oxford University Press, England, 87-88).

[4] = test system: anesthetized normotensive rats (WKY) blood pressure; test: Potentiation of the bradykinin hypotensive effect on anesthetized rat blood pressure; format: in vivo; conditions: for Bk potentiation(%): hypotension increase of a single bradykinin dose after 200 nmol of potentiator i.v., anesthetized rats; for Duration time: time to reduce the potentiating effect by 50%, 200 nmol/rat i.v., unit not given, minutes
Description: The potentiating activity of the bradykinin hypotensive effect was tested in anesthetized rats. Normotensive male rats (WKY) were anesthetized using pentobarbital sodium (Hypnol® Cristália, 50 mg/kg, intraperitoneal) and placed on a controlled-temperature board for maintaining the body temperature between 36.5° C. and 37° C. A polygraph coupled to a physiological transducer was used. The blood pressure ranging values were obtained by integrating the areas limited by the baseline pressure and comparing them to the values obtained from control assays. In in vivo assays, the potentiating activity of Evasins on the hypotensive effect of bradykinin on anesthetized rat blood pressure was observed. Two parameters were determined for comparison of the potentiating effects of bradykinin on the anesthetized rat blood pressure (n=5):
1) Intensity of the potentiating effect of the hypotensive activity of bradykinin on the anesthetized rats blood pressure: This value was defined as the hypotension percentage (%) increase caused by a single dose of bradykinin obtained after the infusion of 200 nmol of potentiator. 2) Potentiating effect length: Time required to reduce the potentiating effect on a single dose of bradykinin by 50%.

[5] = target: recombinant neutral endopeptidase; test: fluorogenic substrate (Abz-RL-EDDnp) inhibition assay, recombinant NEP
[6] = target: T1, recombinant Angiotensin I converting enzyme, C-terminal catalytic site
T1 chain: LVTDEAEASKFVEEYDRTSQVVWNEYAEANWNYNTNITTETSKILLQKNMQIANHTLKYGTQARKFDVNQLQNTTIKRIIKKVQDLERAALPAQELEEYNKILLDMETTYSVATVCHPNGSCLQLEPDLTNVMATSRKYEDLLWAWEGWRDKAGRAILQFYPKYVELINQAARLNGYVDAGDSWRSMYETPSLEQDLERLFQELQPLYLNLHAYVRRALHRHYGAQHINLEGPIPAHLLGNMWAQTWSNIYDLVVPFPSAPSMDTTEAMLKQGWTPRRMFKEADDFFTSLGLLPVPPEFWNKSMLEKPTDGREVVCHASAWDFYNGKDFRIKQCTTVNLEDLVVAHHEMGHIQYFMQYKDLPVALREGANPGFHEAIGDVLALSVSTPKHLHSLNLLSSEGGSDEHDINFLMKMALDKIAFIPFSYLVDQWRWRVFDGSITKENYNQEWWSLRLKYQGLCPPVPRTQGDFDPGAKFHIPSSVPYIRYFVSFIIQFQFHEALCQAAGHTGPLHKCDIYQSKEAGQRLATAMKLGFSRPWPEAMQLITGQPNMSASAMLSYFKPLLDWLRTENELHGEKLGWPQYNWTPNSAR

[7] = target: T2, recombinant Angiotensin I converting enzyme, N-terminal catalytic site
T2 chain: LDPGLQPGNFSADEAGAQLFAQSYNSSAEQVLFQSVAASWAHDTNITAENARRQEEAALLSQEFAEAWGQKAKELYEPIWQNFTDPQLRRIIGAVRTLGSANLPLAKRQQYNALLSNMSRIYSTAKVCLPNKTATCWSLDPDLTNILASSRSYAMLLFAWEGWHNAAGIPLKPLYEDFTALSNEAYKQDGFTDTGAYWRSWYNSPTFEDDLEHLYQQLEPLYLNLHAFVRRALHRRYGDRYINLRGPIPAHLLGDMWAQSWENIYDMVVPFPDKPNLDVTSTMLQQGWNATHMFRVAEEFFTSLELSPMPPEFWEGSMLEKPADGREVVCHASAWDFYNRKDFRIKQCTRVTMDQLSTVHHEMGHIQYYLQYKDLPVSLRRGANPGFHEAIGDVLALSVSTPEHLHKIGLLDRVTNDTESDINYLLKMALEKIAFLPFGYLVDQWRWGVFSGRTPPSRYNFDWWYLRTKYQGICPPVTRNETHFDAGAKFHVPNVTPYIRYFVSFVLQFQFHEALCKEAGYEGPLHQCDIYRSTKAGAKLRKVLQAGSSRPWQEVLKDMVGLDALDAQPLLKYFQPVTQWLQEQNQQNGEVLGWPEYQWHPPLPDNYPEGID

neutral endopeptidase (recombinant NEP), sequence (P08473 whole entry, species assumed): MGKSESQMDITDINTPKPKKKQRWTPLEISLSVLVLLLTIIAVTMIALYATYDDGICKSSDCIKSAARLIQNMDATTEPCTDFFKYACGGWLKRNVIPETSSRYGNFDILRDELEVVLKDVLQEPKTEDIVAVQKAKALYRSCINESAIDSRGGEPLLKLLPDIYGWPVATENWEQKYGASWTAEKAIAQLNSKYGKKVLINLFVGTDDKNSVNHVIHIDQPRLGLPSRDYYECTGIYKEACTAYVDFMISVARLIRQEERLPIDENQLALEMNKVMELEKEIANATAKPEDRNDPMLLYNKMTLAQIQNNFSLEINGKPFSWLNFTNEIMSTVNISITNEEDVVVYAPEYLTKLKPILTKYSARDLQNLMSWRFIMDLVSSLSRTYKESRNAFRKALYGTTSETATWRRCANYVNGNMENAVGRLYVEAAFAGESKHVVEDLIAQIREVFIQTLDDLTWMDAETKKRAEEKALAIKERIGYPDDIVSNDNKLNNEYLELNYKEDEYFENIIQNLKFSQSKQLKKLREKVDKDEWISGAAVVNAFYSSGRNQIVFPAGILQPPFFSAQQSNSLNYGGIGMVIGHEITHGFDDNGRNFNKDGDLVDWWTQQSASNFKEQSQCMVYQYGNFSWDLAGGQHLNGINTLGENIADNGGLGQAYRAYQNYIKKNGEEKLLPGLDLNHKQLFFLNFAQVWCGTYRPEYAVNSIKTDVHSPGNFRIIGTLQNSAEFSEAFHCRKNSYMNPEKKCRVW

`CC[C@H](C)[C@H](NC(=O)[C@H](CC(N)=O)NC(=O)[C@@H]1CCCN1C(=O)CNC(=O)[C@@H]1CCCN1C(=O)[C@H](Cc1c[nH]c2ccccc12)NC(=O)[C@H](CO)NC(=O)[C@@H]1CCC(=O)N1)C(=O)N1CCC[C@H]1C(=O)N1CCC[C@H]1C(=O)O` [EVASIN-10a, <ESWPGPNIPP] ([pGlu]SWPGPNIPP-OH; C-terminus assumed) showed a Ki [1] of 33 nM and a Ki [2] of 130 nM.

For `CC[C@H](C)[C@H](NC(=O)[C@@H]1CCCN1C(=O)[C@@H]1CCCN1C(=O)CNC(=O)[C@@H]1CCCN1C(=O)[C@H](C)NC(=O)[C@H](CCCNC(=N)N)NC(=O)CNC(=O)[C@@H]1CCC(=O)N1)C(=O)N1CCC[C@H]1C(=O)N1CCC[C@H]1C(=O)O` [EVASIN-11b, <EGRAPGPPIPP] ([pGlu]GRAPGPPIPP-OH; C-terminus assumed), the Ki [1] was 57 nM, the Ki [2] was 3000 nM and the Ki [3] was 476000 nM. The “Bk potentiation(%)” value [4] was 164.3% and the Duration time [4] was 90.

`CC[C@H](C)[C@H](NC(=O)[C@@H]1CCCN1C(=O)[C@@H]1CCCN1C(=O)[C@H](Cc1c[nH]cn1)NC(=O)[C@@H]1CCCN1C(=O)[C@H](C)NC(=O)[C@H](CCCNC(=N)N)NC(=O)CNC(=O)[C@@H]1CCC(=O)N1)C(=O)N1CCC[C@H]1C(=O)N1CCC[C@H]1C(=O)O` [EVASIN-11c, <EGRAPHPPIPP] ([pGlu]GRAPHPPIPP-OH; C-terminus assumed) was tested, and the Ki [1] was 40 nM, the Ki [2] was 2000 nM and the Ki [3] was 589000 nM. The “Bk potentiation(%)” value [4] was 67% and the Duration time [4] was 28.

With `CC[C@H](C)[C@H](NC(=O)[C@@H]1CCCN1C(=O)[C@@H]1CCCN1C(=O)[C@H](Cc1c[nH]cn1)NC(=O)[C@@H]1CCCN1C(=O)[C@@H]1CCCN1C(=O)[C@H](CCCNC(=N)N)NC(=O)[C@H](C)NC(=O)[C@@H]1CCC(=O)N1)C(=O)N1CCC[C@H]1C(=O)N1CCC[C@H]1C(=O)O` [EVASIN-11e, EARPPHPPIPP] ([pGlu]ARPPHPPIPP-OH; C-terminus assumed) the “Bk potentiation(%)” value [4] was 41% and the Duration time [4] was 35.

Molecule `CC[C@H](C)[C@H](NC(=O)[C@H](CCC(N)=O)NC(=O)[C@@H]1CCCN1C(=O)[C@H](CCCNC(=N)N)NC(=O)[C@@H]1CCCN1C(=O)[C@H](Cc1c[nH]c2ccccc12)NC(=O)[C@H](C)NC(=O)[C@H](Cc1c[nH]c2ccccc12)NC(=O)CNC(=O)[C@@H]1CCC(=O)N1)C(=O)N1CCC[C@H]1C(=O)N1CCC[C@H]1C(=O)O` [EVASIN-12a, <EGWAWPRPQIPP] ([pGlu]GWAWPRPQIPP-OH; C-terminus assumed) has a Ki [1] of 25 nM, a Ki [2] of 25 nM and a Ki [3] of 106000 nM.

`CC[C@H](C)[C@H](NC(=O)[C@@H]1CCCN1C(=O)[C@@H]1CCCN1C(=O)CNC(=O)[C@@H]1CCCN1C(=O)[C@@H]1CCCN1C(=O)[C@H](CCCNC(=N)N)NC(=O)CNC(=O)[C@H](Cc1c[nH]c2ccccc12)NC(=O)[C@@H]1CCC(=O)N1)C(=O)N1CCC[C@H]1C(=O)N1CCC[C@H]1C(=O)O` [EVASIN-12b, <EWGRPPGPPIPP] ([pGlu]WGRPPGPPIPP-OH; C-terminus assumed) gave a Ki [1] of 150 nM, a Ki [2] of 5 nM and a Ki [3] of 150000 nM. For the same molecule, the “Bk potentiation(%)” value [4] was 340% and the Duration time [4] was 40.

For `CC[C@H](C)[C@H](NC(=O)[C@H](CCC(=O)O)NC(=O)[C@@H]1CCCN1C(=O)CNC(=O)[C@@H]1CCCN1C(=O)[C@H](CCCNC(=N)N)NC(=O)[C@@H]1CCCN1C(=O)[C@H](Cc1c[nH]c2ccccc12)NC(=O)CNC(=O)CNC(=O)[C@@H]1CCC(=O)N1)C(=O)N1CCC[C@H]1C(=O)N1CCC[C@H]1C(=O)O` [EVASIN-13a, <EGGWPRPGPEIPP] ([pGlu]GGWPRPGPEIPP-OH; C-terminus assumed), the Ki [1] was 50 nM, the Ki [2] was 50 nM and the Ki [3] was 473000 nM. For the same molecule, the “Bk potentiation(%)” value [4] was 45% and the Duration time [4] was 30.

With EVASIN-10c (peptide) the Ki [5] was 253000 nM.

B1: EVASIN-7a (peptide)
peptide: [pGlu]DGPIPP
In the case of B1, the Ki [6] is reported as 40000 nM, the Ki [7] is reported as 70000 nM and the Ki [5] is reported as 492000 nM.

B2: EVASIN-10a (peptide)
peptide: [pGlu]SWPGPNIPP
Work on B2 yielded a Ki [6] of 33 nM and a Ki [7] of 130 nM.

B3: EVASIN-12a (peptide)
peptide: [pGlu]GWAWPRPQIPP
For B3, the Ki [6] was 25 nM, the Ki [7] was 25 nM and the Ki [5] was 106000 nM.

B4: EVASIN-13a (peptide)
peptide: [pGlu]GGWPRPGPEIPP
B4 was tested, and the Ki [6] was 50 nM, the Ki [7] was 50 nM and the Ki [5] was 473000 nM.

B5: EVASIN-12b (peptide)
peptide: [pGlu]WGRPPGPPIPP
B5 was tested, and the Ki [6] was 150 nM, the Ki [7] was 5 nM and the Ki [5] was 150000 nM.

B6: EVASIN-5a (peptide)
peptide: [pGlu]KWAP
B6 showed a Ki [6] of 1280 nM, a Ki [7] of 399 nM and a Ki [5] of 550000 nM.

B7: EVASIN-9a (peptide)
peptide: EWPRPQIPP
modifications: pyroglutamic acid (<E) at position 1 (N-terminus)
In the case of B7, the Ki [6] is reported as 1 nM, the Ki [7] is reported as 100 nM and the Ki [5] is reported as 86000 nM.

B8: EVASIN-11c (peptide)
peptide: [pGlu]GRAPHPPIPP
For B8, the Ki [6] was 40 nM, the Ki [7] was 2000 nM and the Ki [5] was 589000 nM.

B9: EVASIN-11b (peptide)
peptide: [pGlu]GRAPGPPIPP
Molecule B9 has a Ki [6] of 57 nM, a Ki [7] of 3000 nM and a Ki [5] of 476000 nM.

Source: US20080199503A1, “Pharmaceutical Compositions Preparation of Peptides, Secreted by the Snake Venom Glands, Particularly of Bothrops Jararaca, Vasopeptidases Inhibitors, Evasins, Their Analogues, Derivatives and Products Associated, Thereof, for Development of Applications and Use in Chronic-Degenerative Diseases” (priority 2002, published 2008)
